Source: patent US6303619A, “Meta-substituted acidic 8-phenylxanthine antagonists of A3 human adenosine receptors” (priority 1998, dated 2001)

What was measured:
[1] = test system: mast cells isolated from rat peritoneum; settings: cited from earlier work
[2] = target: T1, human A3 adenosine receptor (Homo sapiens, UniProt P0DMS8); test: inhibition of forskolin-stimulated cAMP accumulation in stably transfected CHO cells expressing the human A3 receptor; type: cell-based
T1 construct: clone HS-21a contained the complete open reading frame corresponding to the human homolog of the rat A3 adenosine receptor; expressed in transfected cells; host or cells: CHO cells stably transfected with HS-21a cDNA
T1 sequence (P0DMS8 1-318): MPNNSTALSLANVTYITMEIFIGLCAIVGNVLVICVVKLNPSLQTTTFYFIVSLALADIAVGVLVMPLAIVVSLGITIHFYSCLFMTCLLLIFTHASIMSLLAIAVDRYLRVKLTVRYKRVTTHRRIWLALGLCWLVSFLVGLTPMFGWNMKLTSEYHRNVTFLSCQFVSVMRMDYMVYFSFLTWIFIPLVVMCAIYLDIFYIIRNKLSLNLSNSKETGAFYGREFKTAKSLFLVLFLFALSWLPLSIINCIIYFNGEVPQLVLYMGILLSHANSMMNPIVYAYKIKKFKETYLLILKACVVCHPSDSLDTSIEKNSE
Method: The human A3 adenosine receptor from a striatal cDNA library can be cloned using a probe derived from the homologous rat sequence.
cAMP Accumulation in Stable CHO Cell Lines
The changes in cAMP accumulation can alternatively be measured in stably transfected CHO cells expressing the human adenosine receptor subtypes. CHO cells are washed twice in phosphate buffered saline (PBS) and detached in 0.2% EDTA in PBS. The cells are pelleted at 800 rpm for 10 min and resuspended in KRH buffer (140 mM NaCl/5 mM KCl/2 mM CaCl2 /1.2 mM MgSO4 /1.2 mM KH2 PO4 /6 mM glucose/25 mM Hepes buffer, pH 7.4). The cells are washed once in KRH buffer and resuspended at 10^7 cells/mL. The cell suspension (100 μl) is mixed with 100 μl of KRH buffer containing 200 uM Ro 20-1724 and incubated at 37° C. for 10 minutes. Adenosine (10 uM) was added in 200 μl KRH buffer containing 200 uM Ro 20-1724 and incubated at 37° C. for 20 minutes. After the incubation, 400 μl of 0.5 mM NaOAc (pH 6.2) was added and the sample was boiled for 20 minutes. The supernatant was recovered by centrifugation for 15 minutes and stored at -70° C. cAMP levels were determined by radiommunoassay (RIANEN kit, DuPont/NEN) using the to acetylation protocol. The effect of antagonists on cAMP accumulation are measured by preincubation for 20 minutes before adding adenosine.

[3] = test system: hamster cheek pouch anerioles; test: vasoconstriction of hamster cheek pouch arterioles
From the text: The constrictor response has classically been attributed to A1 adenosine receptor stimulation or interactions with the renin-angiotensin system. […] In the present invention, specific blockade of the A3 subtype of the adenosine receptor by a meta-substitutedphenylxanthine is effective to block the vasoconstrictive response induced through adenosine activation of this receptor subtype. The use of a meta-substituted phenylxanthine specific inhibitor of the A3 adenosine receptor subtype is effective to inhibit effects induced by adenosine mediated mast cell degranulation, and that disease states including but not limited to myocardial ischemia (Ito et al., Am. J. Physiol. 264 (Heart Circ. Physiol. 33):H I 346-H 1354, 1993), mastcell-dependent inflammation (Raud, J., Acta. Physiol. Scand. 135 (Suppl '578):I-58, 1989), brain arteriole diameter constriction (Rosenblum, W. I., Brain Res. 49:75-82, 1973), and the release of allergic mediators (Ramkumar et al., J. Biol. Chem. 268:16887-16890, 1993), are all amenable to prevention and treatment by contacting A3 receptor bearing mast cells with an amount of a meta-substituted phenylxanthine selective A3 inhibitor effective to prevent mast cell degranulation.

A3 adenosine receptor = test: mast cell degranulation in an animal model; type: in vivo
From the text: (§1) The release of enzymes, bioactive amines and arachidonic acid metabolites following mast cell activation causes vasoconstriction, edema, leukocyte accumulation, and ultimately, tissue damage. Mast cell degranulation is a component of myocardian reperfusion injury, hypersensitivity reactions (asthma, allergic rhinitis, and urticaria), ischemic bowel disease, autoimmune inflammation, and atopic dermatitis. Selective A3 adenosine receptor antagonists can be used to treat or prevent these diseases and pathologic effects that result from mast cell degranulation.
as §1, with “of: myocardial” for “of myocardian”, “inflammations, 20” for “inflammation,”, “The present invention relates to the use of highly specific meta-substituted 8-phenylxanthine” for “Selective”, “antagonists” for “antagonists can be used”

asthmatics = settings: not nonasthmatics; cited from earlier work
[4] = target: T1, human A3 adenosine receptor; test: 125I-ABA binding to membranes of stably transfected CHO cells expressing the human A3 adenosine receptor (HS-21a); settings: 1 mM nonradioactive I-ABA
[5] = test system: sheep A3 adenosine receptor; settings: cited from earlier work
[6] = test system: non-transfected CHO cells; test: 125I-ABA binding to membranes from non-transfected CHO cells
Method: Membranes were prepared from stable CHO cell lines in 10 mM Hepes, pH 7.4 containing 0.1 mM benzamidine and 0.1 mM PMSF as described (Mahan, L. C. et al., (1991) Mol. Pharinacol. 40, 1-7). Pellets were resuspended in 5 mM Hepes, pH 7.4/5 mM MgCl2 /0.1 mM benzarnidine/0.1 mM PMSF at a protein concentration of 1-2 mg/mL and were incubated with adenosine deaminase (Boehringer Mannheim), 2 U/mL at 37° C. for 20 minutes. Saturation binding of ^125 I-ABA was carried out on 50 μg of membranes for 120 minutes at 25° C. in a total volume of 100 μl. […] Nonspecific binding was measured in the presence of 1 uM I-ABA. The KD and Bmax values were calculated by the EBDA program (McPherson, G. A. (1983) Computer Programs for Biomedicine 17, 107-114). Competition binding of agonists and antagonists was determined with ^125 I-ABA (0.17-2.0 nM, 2000 Ci/mmol). […] Binding data were analyzed and competition curves were constructed by use of the nonlinear regression curve fitting program Graph PAD InPlot, Version 3.0 (Graph Pad Software, San Diego). Ki values were calculated using the Cheng-Prusoff derivation (Cheng, Y. C. and Prusoff, H. R. (1973) Biochem. Pharmacol. 22, 3099-3108.).
The binding properties of the receptor encoded b HS-21a were evaluated on membranes prepared from CHO cells stably expressing the HS-21a cDNA. […]

[7] = target: T1, human A3 adenosine receptor; test: 125I-ABA binding to membranes of stably transfected CHO cells expressing the human A3 adenosine receptor (HS-21a)
Method: Membranes were prepared from transiently transfected COS7 cells […] after transfection or from G418-selected stably transfected CHO or HEK 293 cells. Cells were harvested in 1 mM EDTA in phosphate buffered saline and centrifuged at 2000×g for 10 minutes. The cell pellet was washed once with phosphate buffered saline. The cell pellet was resuspended in 2 mL of 5 mM Tris, pH 7.6/5mM MgCl2. Membranes were prepared from the cells by freeze-thaw lysis in which the suspension was frozen in a dry ice/ethanol bath and thawed at 25° C. twice. The suspension was homogenized after adding an additional 2 mL of 5 mM Tris, pH 7.6/5 mM MgCl2, in a glass dounce homogenizer with 20 strokes. The membranes were pelleted at 40,000×g at 4° C. for 20 minutes. The membrane pellet was resuspended at a protein concentration of 1-2 mg/mL in binding assay buffer, 50 mM Tris, pH 7.6/10 mM MgCl2. Protein concentration was determined by the method of Bradford ((1976) Anal. Biochem. 72: 248-250). […] Saturation binding of [^125 I]-N^6 -aminiobenizyladenosine (125I-ABA) or [^125 I]-N^6 -2-(4-amino-3-iodophenyl)ethyladenosine (APNEA) was performed on membranes prepared from pSVLA3 transfected COS7 cells. Membranes (100 μg) were incubated in the presence of 0.2 U/mL adenosine deaminase with increasing concentrations of ^125 I-ABA in the range of 0.1-30 nM for 120 minutes at 25° C. in a total volume of 500 μl. The binding assay was terminated by rapid filtration and three washes with ice-cold 50 mM Tris, pH 7.6/10 mM MgCl2 on a Skatron cell harvester equipped with a receptor binding flitermat (SKATRON INSTRUMENTS, INC). Non-specific binding was determined on non-transfected cells. Bound radioactivity was measured by scintillation counting in Ready Safe Scintillation Cocktail (BECKMAN).
The 1.7 kb HS-21a cDNA (A3) was subcloned as a SalI-BamHl fragment into the expression vector pCMV5 (Mumby, S. M., Heukeroth, R. O., Gordon, J. I. and Gilman, A. G. (1990) Proc. Natl. Acad. Sci. USA 87, 728-732.) creating the vector pCMV5-A3. CHO or HEK 293 cells stably expressing the human HS-21 a cDNA were prepared by co-transfection of 15 μg pCMV5-A3 and 1 μg pWLneo (Stratagene) using the calcium phosphate method. Stable cell lines were also generated using EBV based mammalian expression vectors, pREP (INVITROGEN). Neomycin resistant colonies were selected in 1 mg/mL G418 (GIBCO). Stable colonies were screened for expression of HS-21a by ^125 I-ABA binding.
Membranes were prepared from stable CHO cell lines in 10 mM Hepes, pH 7.4 containing 0.1 mM benzamidine and 0.1 mM PMSF as described (Mahan, L. C. et al., (1991) Mol. Pharinacol. 40, 1-7). Pellets were resuspended in 5 mM Hepes, pH 7.4/5 mM MgCl2 /0.1 mM benzarnidine/0.1 mM PMSF at a protein concentration of 1-2 mg/mL and were incubated with adenosine deaminase (Boehringer Mannheim), 2 U/mL at 37° C. for 20 minutes. Saturation binding of ^125 I-ABA was carried out on 50 μg of membranes for 120 minutes at 25° C. in a total volume of 100 μl. The assay was terminated by rapid filtration and three washes with ice-cold binding buffer on a Skatron harvester equipped with a receptor binding filtermat (Skatron Instruments, Inc.). The specific activity of ^125 I-ABA, initially 2,200 Ci/mmol, was reduced to 100 Ci/mmol with nonradioactive I-ABA for saturation analysis. Nonspecific binding was measured in the presence of 1 uM I-ABA. The KD and Bmax values were calculated by the EBDA program (McPherson, G. A. (1983) Computer Programs for Biomedicine 17, 107-114). Competition binding of agonists and antagonists was determined with ^125 I-ABA (0.17-2.0 nM, 2000 Ci/mmol). […] Binding data were analyzed and competition curves were constructed by use of the nonlinear regression curve fitting program Graph PAD InPlot, Version 3.0 (Graph Pad Software, San Diego).

[8] = 125I-ABA saturation binding, HS-21a stable CHO cell membranes

## Nc1ncnc2c1ncn2[C@@H]1O[C@H](CO)[C@@H](O)[C@H]1O [Adenosine, adenosine]
[1]
  release of granule contents: potentiates the release of granule contents
[2]; stably transfected CHO cells, human A3
  inhibition of forskolin-stimulated cAMP accumulation: 30-40%
[3]
  vasoconstrictor action: vasoconstrictor action
A3 adenosine receptor
  induction of mast cell degranulation: induce mast cell degranulation
asthmatics
  bronchoconstriction: produces bronchoconstriction in asthmatics but not in nonasthmatics

## Nc1ccc(CNc2ncnc3c2ncn3[C@@H]2O[C@H](CO)[C@@H](O)[C@H]2O)cc1I [I-ABA]
[4]
  prevention of specific binding of 125I-ABA: prevented
[2]; human A3, stably transfected CHO cells
  agonist character (partial agonist): partial agonist
[5]
  agonist affinity order: I-ABA>APNEA>NECA≥R-PIA>>CPA

## Nc1ccc(CNc2ncnc3c2ncn3[C@@H]2O[C@H](CO)[C@@H](O)[C@H]2O)cc1[125I] [^125 I-ABA, N^6-(4-amino-3^125 iodobenzyl)adenosine]
[6]
  specific binding to non-transfected cells: No specific binding
[5]
  binding / affinity of ligands in words: binds
[7]; [8]
  Bmax: 258 fmol/mg protein
  Hill coefficient: 0.99
[7]; HS-21a in stable CHO cell line
  agonist activity inferred from effect of uncoupling reagents on binding: exhibits some agonist activity
